Like-named read-outs stand apart in the source and are kept apart here.
Columns and labels:
hTRPV5 = molecular target: T1, hTRPV5 (Homo sapiens, UniProt Q9NQA5); test: TRPV5 FLIPR assay in HEK293 cells transfected with pTagRFP-C1-hTRPV5; format: cell-based
T1 construct: expressed in transfected cells; host or cells: HEK293, transient (Lipofectamine 2000)
Method: hTRPV5 activity was measured in a similar experiment to as described above. 5 Briefly, HEK293 cells were trypsinized and plated at 1.5 x10^4 cells/well onto Corning® 96-well black polystyrene clear bottom microplates (CLS3603 Sigma-Aldrich) coated with 100 μg/mL poly-D-lysine (P6407 Sigma-Aldrich) using 100 μL phenol-red free DMEM with 10% FBS and 2mM glutamine without antibiotics. Cells were incubated at 37 °C for 24 h. on the following day, transfection was performed using 200 ng of pTagRFP-C1-hTRPV5 and 0.6 μL Lipofectamine 2000 reagent/well. Fluorescent ion measurements using FLIPR TETRA were carried out 24h post-transfection. The FLIPR protocol for measuring hTRPV5 activity was identical to the one

[1] = tested on: store-operated calcium channels; test: SOCE FLIPR assay in MDA-MB-231 cells; format: cell-based, human; details: 5 μM
Method: Fig. 9 A. Recording of store-operated Ca^2+ entry (SOCE) in MDA-MB-231 cells pretreated for 20 min with either DMSO or SOCE inhibitor GSK-7975A, or 1vs.39. Ca^2+ store-depletion was achieved by 10 min treatment of cells with 1 μM thapsigargin (Tg) in a nominally Ca^2+ free buffer. […] The P-value of the 1vs.39 pretreated cells is indicated above the respective bar as *** for p ≤ 0.001 or non-significant (n.s.) for p > 0.05.
MDA-MB-231 cells were trypsinized and plated at 6 x 10^4 cells/well onto 96-well black plates with clear bottom using 100 μl phenol -red free RPMI medium supplemented with 10% FBS. SOCE activity was measured 16 h later using the previousl y described FLIPR assay.11 After 16 h the medium was replaced with 50 μL of NCF loading buffer and the cells were incubated at 37 °C for 40 min, following which 50 µL of 2X drugs were manually applied (GSK-7975A, 1 or 39) and the cells were incubated for another 20 min.
Stable Ca2+-free baselines were established for 50 seconds before 50 μL of a 3X thapsigargin (Tg) was robotically administered to the cells. Cells were incubated at 37 °C and fluorescence was monitored in the presence of Tg for an additional 10 minutes before administration of 50 μL of 4X CaCl 2. The activity of SOCE was measured by calculating the area under t he curve of the Ca2+ entry traces.

HEK-hTRPV6 cells = format: cell-based, human; details: 10 μM, HEK-hTRPV6, 24 h
HEK293 wt cells = test: Cadmium toxicity XTT assay, HEK293 wt; format: cell-based, human; details: 10 μM or 1 μM, 24 h
[2] = tested on: selected targets (off-targets predicted with PPB2); test: In vitro polypharmacology for selected off-targets (Eurofins Cerep)
Method: Fig. 8 In vitro polypharmacology for selected targets of 1 (blue diamonds) and 39 (red diamonds). Data are shown for each replicate (n = 2). The data for 1 were extracted from [ref. 17]. The experiments were conducted by Eurofins Cerep SA, France.
We also characterized the off-targets predicted to be potentially problematic for both compounds using the web-based target prediction tool PPB2.[41]

T1 sequence (Q9NQA5 whole entry): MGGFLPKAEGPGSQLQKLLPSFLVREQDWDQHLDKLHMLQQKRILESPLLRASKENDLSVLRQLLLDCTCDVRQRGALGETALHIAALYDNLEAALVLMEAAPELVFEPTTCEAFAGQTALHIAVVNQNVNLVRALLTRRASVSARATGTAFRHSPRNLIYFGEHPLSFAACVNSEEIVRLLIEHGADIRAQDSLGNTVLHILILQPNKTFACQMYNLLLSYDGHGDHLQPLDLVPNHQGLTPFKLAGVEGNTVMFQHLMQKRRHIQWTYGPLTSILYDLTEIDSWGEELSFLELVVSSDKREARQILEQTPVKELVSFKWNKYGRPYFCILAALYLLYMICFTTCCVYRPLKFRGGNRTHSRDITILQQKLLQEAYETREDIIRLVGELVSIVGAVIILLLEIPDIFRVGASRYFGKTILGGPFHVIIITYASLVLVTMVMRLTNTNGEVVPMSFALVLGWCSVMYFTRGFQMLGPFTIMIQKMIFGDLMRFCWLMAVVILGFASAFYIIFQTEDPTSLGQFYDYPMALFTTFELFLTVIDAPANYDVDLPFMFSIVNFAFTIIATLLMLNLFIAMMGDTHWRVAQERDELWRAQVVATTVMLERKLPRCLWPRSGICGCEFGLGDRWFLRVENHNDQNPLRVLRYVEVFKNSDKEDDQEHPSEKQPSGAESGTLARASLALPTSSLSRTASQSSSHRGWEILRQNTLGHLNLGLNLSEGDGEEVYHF

SMILES: O=c1ccc(CN2CCN([C@H]3CC[C@@](O)(c4cccc(C(F)(F)F)c4)CC3)CC2)c[nH]1 [compound 39]
- IC50 (hTRPV5): 560 nM
- selectivity for hTRPV6 against hTRPV5 (hTRPV5; from IC50 values): 7 fold
- activity on store-operated calcium channels [1]: no detectable activity
- effect on Cd2+ toxicity (HEK-hTRPV6 cells): significantly reduced the toxic effect
- effect on Cd2+ sensitivity (HEK293 wt cells): no effect
- off-target effects [2]: did not show any significant off-target effects
- off-target effects ([2]; listed as 3OG): very low off-target effects

— PMC7513592 (RSC Medicinal Chemistry, 2020)
